Patent publication US20200315996A1 (Board of Trustees, Southern Illinois University, priority 2016, published 2020)

What was measured:
[1] = system: p-STAT3; assay: Immunohistochemistry of endometriotic lesions, p-STAT3; assay type: in vivo, mice; settings: 3 weeks; for % of p-STAT3 positive cells/total cells/0.007 mm^2, Stroma: control 11.5 ± 4.4
Source text: The presence and location of different proteins in the tissues obtained from the recipient mice. Samples of uterine tissue were isolated from the recipient mice, fixed by standard histological methods, and embedded in paraffin. Thin sections (5 μm) of the paraffin-embedded tissues were screened with standard immunohistochemical methods using antibodies to identify the expression of in the uterine tissues. […] The expression of MKI67, ESR1, PGR, p-CHUK, p-STAT3, NOS2 and PTGS2 proteins in uterine tissues, as determined by immunohistochemical analysis of uterine tissue sections, was semiquantitatively analyzed. Levels of apoptosis were analyzed by TUNEL assay and also semiquantitatively analyzed. […] Histological sections were obtained from 4 different lesions. For each section, three different areas measuring 0.007 mm^2 were chosen. In each of those areas, the total number of epithelial or stromal cells was counted, as was the number of cells that tested positive for expressing MKI67 (a marker of cellular proliferation), steroid receptors ESR1 and PGR, and inflammatory signaling molecules p-CHUK, p-STAT3, NOS2 and PTGS2 proteins.

[2] = system: genes related to inflammation; assay: RNA sequencing and qPCR of endometriotic lesions; assay type: in vivo, mice; settings: 3 weeks vs control
Protocol: The endometriotic lesions were screened by RNA sequencing for the expression of a variety of genes of interest. Total RNA was isolated from the lesions using the RNeasy mini kit (#74104, Qiagen). RNA quality was assessed, and RNA-sequencing (RNA-seq) were performed at the Functional Genomics Core Facility of University of Illinois. Briefly, the stranded RNA-seq libraries were prepared with IIlumina's TruSeq Stranded RNA Sample Prep kit (# RS-122-2201, Illumina). The libraries were pooled in equimolar concentration, and the pool was quantitated by qPCR and sequenced on one lane for 101 cycles on a HiSeq2500 (Illumina) using a HiSeq SBS sequencing kit (# FC-401-4002, Illumina). Fastq files were generated and demultiplexed with the bcl2fastq v1.8.4 Conversion Software (Illumina). Quantitative PCR (qPCR) was performed as described previously [Reardon, 2012]. The 5′-3′ sequences of the primer pairs (forward and reverse primer pairs) used to determine the presence of different genes are shown in Table 3. For each gene, the name of the gene, the accession number of the gene, the 5′-3′ sequence of the paired primers, and the length of the amplicon obtained is provided in Table 3. All experimental data were subjected to one-way ANOVA tests and the differences between individual means were tested by a Tukey multiple-range test using Prism 5.0 (GraphPad). qPCR data were tested by t-test using Prism 5.0. Tests of significance were performed using the appropriate error terms according to the expectation of the mean squares for error. […] Data are presented as mean with standard error of the mean (SEM).

Q: Which results are given for `O=C(Nc1ccc([N+](=O)[O-])cc1Cl)c1cc(Cl)ccc1O` [niclosamide, 5-chloro-N-(2-chloro-4-nitrophenyl)-2-hydroxybenzamide]?
A: % of p-STAT3 positive cells/total cells/0.007 mm^2, Stroma ([1]; 100 mg/kg b.w./day oral): 6.9 ± 1.9%; % of p-STAT3 positive cells/total cells/0.007 mm^2, Epithelium ([1]; 100 mg/kg b.w./day oral, control 54.1 ± 3.9): 59.0 ± 5.4%; % of p-STAT3 positive cells/total cells/0.007 mm^2, Stroma ([1]; 200 mg/kg b.w./day oral): 4.1 ± 1.0%; % of p-STAT3 positive cells/total cells/0.007 mm^2, Epithelium ([1]; 200 mg/kg b.w./day oral, control 54.1 ± 3.9, p < 0.001): 26.4 ± 3.8 %; Ccl17 level in the endometriotic lesions ([2]; 200 mg/kg b.w./day): increased; expression of genes related to inflammation (Cxcl14, Lep, Lpo, Muc13, Trpc3 and Ptprz1) in the endometriotic lesions ([2]; qPCR n=6-8, 200 mg/kg b.w./day): significantly decreased; expression of Id4 and Wnt7a in treated lesions ([2]; qPCR, 200 mg/kg b.w./day): reduced
